{"source": "ChEMBL document CHEMBL1833925", "about": "“Synthesis and structure-activity relationship of 4-quinolone-3-carboxylic acid based inhibitors of glycogen synthase kinase-3β” (Bioorg Med Chem Lett, 2011)", "key": {"Staphylococcus aureus": {"test_system": "Staphylococcus aureus", "assay": "Antibacterial activity against Staphylococcus aureus after 18 hrs by microdilution assay", "assay_type": "functional"}, "[1]": {"molecular_target": "Glycogen synthase kinase-3 beta (Homo sapiens, UniProt P49841)", "sequence (P49841 whole entry)": "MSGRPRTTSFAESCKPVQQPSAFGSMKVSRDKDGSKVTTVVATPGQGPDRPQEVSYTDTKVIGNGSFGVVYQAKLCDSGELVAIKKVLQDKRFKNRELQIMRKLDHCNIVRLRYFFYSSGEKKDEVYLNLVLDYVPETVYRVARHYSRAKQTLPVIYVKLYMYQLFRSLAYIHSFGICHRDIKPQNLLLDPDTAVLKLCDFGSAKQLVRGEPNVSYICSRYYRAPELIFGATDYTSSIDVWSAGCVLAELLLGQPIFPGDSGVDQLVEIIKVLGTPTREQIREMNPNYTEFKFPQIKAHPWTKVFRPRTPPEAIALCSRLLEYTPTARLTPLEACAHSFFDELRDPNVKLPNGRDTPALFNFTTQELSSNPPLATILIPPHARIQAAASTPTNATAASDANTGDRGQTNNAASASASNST", "assay": "Inhibition of human recombinant full length GSK3-beta after 1 hrs by luminescence assay"}, "Escherichia coli": {"test_system": "Escherichia coli", "assay": "Antibacterial activity against Escherichia coli after 18 hrs by microdilution assay", "assay_type": "functional"}}, "note": "pIC50: −log10 of the molar value.", "data": [{"smiles": "CC(C)[C@@H]1COc2c(NCCNc3ccccn3)c(F)c(N)c3c(=O)c(C(=O)O)cn1c23", "values": [{"measurement": "MIC", "setting": "Staphylococcus aureus", "result": "> 2", "unit": "µM"}, {"measurement": "pIC50", "setting": "[1]", "result": 7.51}, {"measurement": "MIC", "setting": "Escherichia coli", "result": "> 2", "unit": "µM"}]}, {"smiles": "Nc1c(F)c(NCCc2c[nH]c3ccccc23)c(F)c2c1c(=O)c(C(=O)O)cn2C1CC1", "values": [{"measurement": "pIC50", "setting": "[1]", "result": 6.18}]}, {"smiles": "Nc1c(F)c(NCCNc2ccccn2)c(F)c2c1c(=O)c(C(=O)O)cn2C1CCCC1", "values": [{"measurement": "MIC", "setting": "Staphylococcus aureus", "result": "> 29", "unit": "µM"}, {"measurement": "pIC50", "setting": "[1]", "result": 7.66}, {"measurement": "MIC", "setting": "Escherichia coli", "result": "> 29", "unit": "µM"}]}, {"smiles": "Nc1c(F)c(NCCCn2ccnc2)c(F)c2c1c(=O)c(C(=O)O)cn2C1CC1", "values": [{"measurement": "pIC50", "setting": "[1]", "result": 7.35}]}, {"smiles": "CC1(C)COc2c(NCCNc3ccccn3)c(F)c(N)c3c(=O)c(C(=O)O)cn(c23)C1", "values": [{"measurement": "MIC", "setting": "Staphylococcus aureus", "result": "> 7", "unit": "µM"}, {"measurement": "pIC50", "setting": "[1]", "result": 6.80}, {"measurement": "MIC", "setting": "Escherichia coli", "result": "> 7", "unit": "µM"}]}, {"smiles": "C[C@H]1COc2c(NCCNc3ccccn3)c(F)c(N)c3c(=O)c(C(=O)O)cn1c23", "values": [{"measurement": "MIC", "setting": "Staphylococcus aureus", "result": 2, "unit": "µM"}, {"measurement": "pIC50", "setting": "[1]", "result": 7.36}, {"measurement": "MIC", "setting": "Escherichia coli", "result": 4, "unit": "µM"}]}, {"smiles": "Nc1c(F)c(NCCCc2ccccc2)c(F)c2c1c(=O)c(C(=O)O)cn2C1CC1", "values": [{"measurement": "pIC50", "setting": "[1]", "result": 7.35}]}, {"smiles": "CC1(C)Cn2cc(C(=O)O)c(=O)c3c(N)c(F)c(NCCNc4ccccn4)c(c32)O1", "values": [{"measurement": "MIC", "setting": "Staphylococcus aureus", "result": "> 37", "unit": "µM"}, {"measurement": "pIC50", "setting": "[1]", "result": 6.36}, {"measurement": "MIC", "setting": "Escherichia coli", "result": "> 37", "unit": "µM"}]}, {"smiles": "COc1c(NCCNc2cccc3ccccc23)c(F)cc2c(=O)c(C(=O)O)cn(C3CC3)c12", "values": [{"measurement": "pIC50", "setting": "[1]", "result": 4.59}]}, {"smiles": "COc1c(NCCCc2ccccc2)c(F)cc2c(=O)c(C(=O)O)cn(C3CC3)c12", "values": [{"measurement": "pIC50", "setting": "[1]", "result": 4.77}]}, {"smiles": "COc1c(NCCNc2ccccn2)c(F)c(N)c2c(=O)c(C(=O)O)cn(CCC(C)C)c12", "values": [{"measurement": "MIC", "setting": "Staphylococcus aureus", "result": "> 28", "unit": "µM"}, {"measurement": "pIC50", "setting": "[1]", "result": 4.80}, {"measurement": "MIC", "setting": "Escherichia coli", "result": "> 28", "unit": "µM"}]}, {"smiles": "Nc1ccc(CCNc2c(F)c(N)c3c(=O)c(C(=O)O)cn(C4CC4)c3c2F)cc1", "values": [{"measurement": "pIC50", "setting": "[1]", "result": 6.05}]}, {"smiles": "Nc1c(F)c(NCCN2CCOCC2)c(F)c2c1c(=O)c(C(=O)O)cn2C1CC1", "values": [{"measurement": "pIC50", "setting": "[1]", "result": 5.68}]}, {"smiles": "COc1c(NCCNc2ccccn2)c(F)c(N)c2c(=O)c(C(=O)O)cn(C)c12", "values": [{"measurement": "MIC", "setting": "Staphylococcus aureus", "result": 13, "unit": "µM"}, {"measurement": "pIC50", "setting": "[1]", "result": 6.57}, {"measurement": "MIC", "setting": "Escherichia coli", "result": "> 13", "unit": "µM"}]}, {"smiles": "COc1c(NCCNc2ccccn2)c(F)c(N)c2c(=O)c(C(=O)O)c[nH]c12", "values": [{"measurement": "MIC", "setting": "Staphylococcus aureus", "result": 25, "unit": "µM"}, {"measurement": "pIC50", "setting": "[1]", "result": 6.00}, {"measurement": "MIC", "setting": "Escherichia coli", "result": 25, "unit": "µM"}]}, {"smiles": "C[C@@H]1COc2c(NCCNc3ccccn3)c(F)c(N)c3c(=O)c(C(=O)O)cn1c23", "values": [{"measurement": "MIC", "setting": "Staphylococcus aureus", "result": 243, "unit": "µM"}, {"measurement": "pIC50", "setting": "[1]", "result": 6.25}, {"measurement": "MIC", "setting": "Escherichia coli", "result": "> 243", "unit": "µM"}]}, {"smiles": "COc1c(NCCNc2cccc3ccccc23)c(F)c(N)c2c(=O)c(C(=O)O)cn(C3CC3)c12", "values": [{"measurement": "pIC50", "setting": "[1]", "result": 7.51}]}, {"smiles": "Nc1c(F)c(NCCCCc2ccccc2)c(F)c2c1c(=O)c(C(=O)O)cn2C1CC1", "values": [{"measurement": "pIC50", "setting": "[1]", "result": 6.54}]}, {"smiles": "COc1c(NCCNc2ccccn2)c(F)c(N)c2c(=O)c(C(=O)O)cn(C3CCCC3)c12", "values": [{"measurement": "MIC", "setting": "Staphylococcus aureus", "result": 7, "unit": "µM"}, {"measurement": "pIC50", "setting": "[1]", "result": 5.82}, {"measurement": "MIC", "setting": "Escherichia coli", "result": "> 28", "unit": "µM"}]}, {"smiles": "Nc1c(F)c(NCCNc2ccccn2)c(F)c2c1c(=O)c(C(=O)O)cn2C1CC1", "values": [{"measurement": "pIC50", "setting": "[1]", "result": 6.72}]}, {"smiles": "Nc1c(F)c(NC2CCCCC2)c(F)c2c1c(=O)c(C(=O)O)cn2C1CC1", "values": [{"measurement": "pIC50", "setting": "[1]", "result": 6.22}]}, {"smiles": "CC(C)Nc1c(F)c(N)c2c(=O)c(C(=O)O)cn(C3CC3)c2c1F", "values": [{"measurement": "pIC50", "setting": "[1]", "result": 5.92}]}, {"smiles": "COc1c(NCCNc2ccccn2)c(F)c(N)c2c(=O)c(C(=O)O)cn(C3CC3)c12", "values": [{"measurement": "MIC", "setting": "Staphylococcus aureus", "result": 1, "unit": "µM"}, {"measurement": "pIC50", "setting": "[1]", "result": 6.80}, {"measurement": "MIC", "setting": "Escherichia coli", "result": 9, "unit": "µM"}]}, {"smiles": "CC(C)[C@H]1COc2c(NCCNc3ccccn3)c(F)c(N)c3c(=O)c(C(=O)O)cn1c23", "values": [{"measurement": "MIC", "setting": "Staphylococcus aureus", "result": 14, "unit": "µM"}, {"measurement": "pIC50", "setting": "[1]", "result": 7.12}, {"measurement": "MIC", "setting": "Escherichia coli", "result": "> 29", "unit": "µM"}]}, {"smiles": "Nc1c(F)c(NCCc2ccccc2)c(F)c2c1c(=O)c(C(=O)O)cn2C1CC1", "values": [{"measurement": "pIC50", "setting": "[1]", "result": 6.36}]}, {"smiles": "Nc1c(F)c(NCCNc2ccccn2)cc2c1c(=O)c(C(=O)O)cn2C1CC1", "values": [{"measurement": "MIC", "setting": "Staphylococcus aureus", "result": 0.2, "unit": "µM"}, {"measurement": "pIC50", "setting": "[1]", "result": 7.89}, {"measurement": "MIC", "setting": "Escherichia coli", "result": 0.8, "unit": "µM"}]}, {"smiles": "Nc1c(F)c(NCCNc2ccccn2)c2c3c1c(=O)c(C(=O)O)cn3C1(CCCC1)CO2", "values": [{"measurement": "MIC", "setting": "Staphylococcus aureus", "result": 71, "unit": "µM"}, {"measurement": "pIC50", "setting": "[1]", "result": 7.92}, {"measurement": "MIC", "setting": "Escherichia coli", "result": "> 71", "unit": "µM"}]}, {"smiles": "CC(C)OCCCNc1c(F)c(N)c2c(=O)c(C(=O)O)cn(C3CC3)c2c1F", "values": [{"measurement": "pIC50", "setting": "[1]", "result": 6.96}]}, {"smiles": "Nc1c(F)c(NCCn2ccnc2)c(F)c2c1c(=O)c(C(=O)O)cn2C1CC1", "values": [{"measurement": "pIC50", "setting": "[1]", "result": 5.47}]}, {"smiles": "Nc1c(F)c(NCCNc2cccc3ccccc23)c(F)c2c1c(=O)c(C(=O)O)cn2C1CC1", "values": [{"measurement": "pIC50", "setting": "[1]", "result": 7.33}]}, {"smiles": "COc1c(NCCCc2ccccc2)c(F)c(N)c2c(=O)c(C(=O)O)cn(C3CC3)c12", "values": [{"measurement": "pIC50", "setting": "[1]", "result": 7.19}]}, {"smiles": "Nc1c(F)c(NCCNc2ccccn2)c2c3c1c(=O)c(C(=O)O)cn3C1(CCC1)CO2", "values": [{"measurement": "MIC", "setting": "Staphylococcus aureus", "result": "> 36", "unit": "µM"}, {"measurement": "pIC50", "setting": "[1]", "result": 7.24}, {"measurement": "MIC", "setting": "Escherichia coli", "result": "> 36", "unit": "µM"}]}, {"smiles": "Nc1c(F)c(NCCc2ccncc2)c(F)c2c1c(=O)c(C(=O)O)cn2C1CC1", "values": [{"measurement": "pIC50", "setting": "[1]", "result": 7.00}]}, {"smiles": "CC1(C)COc2c(NCCNc3ccccn3)c(F)c(N)c3c(=O)c(C(=O)O)cn1c23", "values": [{"measurement": "MIC", "setting": "Staphylococcus aureus", "result": 59, "unit": "µM"}, {"measurement": "pIC50", "setting": "[1]", "result": 7.31}, {"measurement": "MIC", "setting": "Escherichia coli", "result": 59, "unit": "µM"}]}]}
